Results taken from patent publication US9469650B2, “Melampomagnolide B derivatives” (BOARD OF TRUSTEES OF THE UNIVERSITY OF ARKANSAS, priority 2013, dated 2016).
Read-outs that look alike come from different tables or passages of the source.

Tests used:
M14 = assay: panel of 60 human tumor cell lines, growth inhibition (Melanoma); conditions: M14
K-562 = assay: panel of 60 human tumor cell lines, growth inhibition (Leukemia); conditions: K-562
SK-MEL-2 = assay: panel of 60 human tumor cell lines, growth inhibition (Melanoma); conditions: SK-MEL-2
HCT-15 = assay: panel of 60 human tumor cell lines, growth inhibition (Colon Cancer); conditions: HCT-15
SNB-75 = assay: panel of 60 human tumor cell lines, growth inhibition (CNS Cancer); conditions: SNB-75
NCI-H322M = assay: panel of 60 human tumor cell lines, growth inhibition (Non-Small Cell Lung Cancer)
SK-OV-3 = assay: panel of 60 human tumor cell lines, growth inhibition (Ovarian Cancer); conditions: SK-OV-3
786-0 = assay: panel of 60 human tumor cell lines, growth inhibition (Renal Cancer); conditions: 786-0
NCI-H226 = assay: panel of 60 human tumor cell lines, growth inhibition (Non-Small Cell Lung Cancer); conditions: NCI-H226
MCF7 = assay: panel of 60 human tumor cell lines, growth inhibition (Breast Cancer); conditions: MCF7
OVCAR-3 = assay: panel of 60 human tumor cell lines, growth inhibition (Ovarian Cancer); conditions: OVCAR-3
BT-549 = assay: panel of 60 human tumor cell lines, growth inhibition (Breast Cancer)
UO-31 [1] = test system: UO-31
RXF 393 = assay: panel of 60 human tumor cell lines, growth inhibition (Renal Cancer); conditions: RXF 393
HCT-116 = assay: panel of 60 human tumor cell lines, growth inhibition (Colon Cancer); conditions: HCT-116
UO-31 [2] = assay: panel of 60 human tumor cell lines, growth inhibition (Renal Cancer); conditions: UO-31
DU-145 = assay: panel of 60 human tumor cell lines, growth inhibition (Prostate Cancer); conditions: DU-145
UACC-62 = assay: panel of 60 human tumor cell lines, growth inhibition (Melanoma); conditions: UACC-62

In the case of `C=C1C(=O)O[C@H]2[C@H]1CC/C(COC(=O)NCCN1CCCCC1)=C\CC[C@@]1(C)O[C@@H]21` [JVM 2-13], the GI50 (M14) is reported as 6.78 µM, the “Percent Growth” value (M14; Log10 Concentration −4.0) is reported as −82% and the “Percent Growth” value (M14; Log10 Concentration −5.0) is reported as 42%. The “Percent Growth” value (M14; Log10 Concentration −6.0) was 91%, the “Percent Growth” value (M14; Log10 Concentration −7.0) was 96% and the “Percent Growth” value (M14; Log10 Concentration −8.0) was 91%. For the same molecule, the GI50 (K-562) was 2.79 µM, the TGI (K-562) was 9.11 µM and the “Percent Growth” value (K-562; Log10 Concentration −4.0) was −42%. The “Percent Growth” value (K-562; Log10 Concentration −5.0) was −4%, the “Percent Growth” value (K-562; Log10 Concentration −6.0) was 93% and the “Percent Growth” value (K-562; Log10 Concentration −7.0) was 95%. For the same molecule, the “Percent Growth” value (K-562; Log10 Concentration −8.0) was 100%, the GI50 (HL-60(TB)) was 3.5 µM and the TGI (HL-60(TB)) was 11.3 µM. The “Percent Growth” value (HL-60(TB); Log10 Concentration −4.0) was −44%, the “Percent Growth” value (HL-60(TB); Log10 Concentration −5.0) was 2% and the “Percent Growth” value (HL-60(TB); Log10 Concentration −6.0) was 107%. The “Percent Growth” value (HL-60(TB); Log10 Concentration −7.0) was 106%, the “Percent Growth” value (HL-60(TB); Log10 Concentration −8.0) was 90% and the CC50 (HL-60(TB); read-out: LC50) was > 100 µM. For the same molecule, the GI50 (SK-MEL-2) was 17 µM, the TGI (SK-MEL-2) was 34.4 µM and the “Percent Growth” value (SK-MEL-2; Log10 Concentration −4.0) was −76%. The “Percent Growth” value (SK-MEL-2; Log10 Concentration −5.0) was 88%, the “Percent Growth” value (SK-MEL-2; Log10 Concentration −6.0) was 113% and the “Percent Growth” value (SK-MEL-2; Log10 Concentration −7.0) was 113%. The “Percent Growth” value (SK-MEL-2; Log10 Concentration −8.0) was 103%, the GI50 (HCT-15) was 3.08 µM and the TGI (HCT-15) was 13.1 µM. For the same molecule, the “Percent Growth” value (HCT-15; Log10 Concentration −4.0) was −75%, the “Percent Growth” value (HCT-15; Log10 Concentration −5.0) was 10% and the “Percent Growth” value (HCT-15; Log10 Concentration −6.0) was 88%. For the same molecule, the “Percent Growth” value (HCT-15; Log10 Concentration −7.0) was 95%, the “Percent Growth” value (HCT-15; Log10 Concentration −8.0) was 91% and the GI50 (SNB-75) was 10.4 µM. For the same molecule, the TGI (SNB-75) was 2.256−5 M, the “Percent Growth” value (SNB-75; Log10 Concentration −4.0) was −96% and the “Percent Growth” value (SNB-75; Log10 Concentration −5.0) was 52%. For the same molecule, the “Percent Growth” value (SNB-75; Log10 Concentration −6.0) was 73%, the “Percent Growth” value (SNB-75; Log10 Concentration −7.0) was 75% and the “Percent Growth” value (SNB-75; Log10 Concentration −8.0) was 75%. The GI50 (NCI-H322M) was 17.4 µM, the “Percent Growth” value (NCI-H322M; Log10 Concentration −4.0) was −89% and the “Percent Growth” value (NCI-H322M; Log10 Concentration −5.0) was 94%. For the same molecule, the “Percent Growth” value (NCI-H322M; Log10 Concentration −6.0) was 106%, the “Percent Growth” value (NCI-H322M; Log10 Concentration −7.0) was 112% and the “Percent Growth” value (NCI-H322M; Log10 Concentration −8.0) was 105%. For the same molecule, the GI50 (SK-OV-3) was 21 µM, the TGI (SK-OV-3) was 45.8 µM and the “Percent Growth” value (SK-OV-3; Log10 Concentration −4.0) was −50%. The “Percent Growth” value (SK-OV-3; Log10 Concentration −5.0) was 97%, the “Percent Growth” value (SK-OV-3; Log10 Concentration −6.0) was 97% and the “Percent Growth” value (SK-OV-3; Log10 Concentration −7.0) was 103%. For the same molecule, the “Percent Growth” value (SK-OV-3; Log10 Concentration −8.0) was 92%, the GI50 (786-0) was 3.95 µM and the TGI (786-0) was 17.3 µM. For the same molecule, the “Percent Growth” value (786-0; Log10 Concentration −4.0) was −74%, the “Percent Growth” value (786-0; Log10 Concentration −5.0) was 23% and the “Percent Growth” value (786-0; Log10 Concentration −6.0) was 90%. The “Percent Growth” value (786-0; Log10 Concentration −7.0) was 89%, the “Percent Growth” value (786-0; Log10 Concentration −8.0) was 86% and the GI50 (NCI-H226) was 10.5 µM. The TGI (NCI-H226) was 40.2 µM, the “Percent Growth” value (NCI-H226; Log10 Concentration −4.0) was −3% and the “Percent Growth” value (NCI-H226; Log10 Concentration −5.0) was 52%. For the same molecule, the “Percent Growth” value (NCI-H226; Log10 Concentration −6.0) was 93%, the “Percent Growth” value (NCI-H226; Log10 Concentration −7.0) was 96% and the “Percent Growth” value (NCI-H226; Log10 Concentration −8.0) was 99%. For the same molecule, the GI50 (MCF7) was 2.58 µM, the TGI (MCF7) was 11.4 µM and the “Percent Growth” value (MCF7; Log10 Concentration −4.0) was −64%. For the same molecule, the “Percent Growth” value (MCF7; Log10 Concentration −5.0) was 4%, the “Percent Growth” value (MCF7; Log10 Concentration −6.0) was 82% and the “Percent Growth” value (MCF7; Log10 Concentration −7.0) was 91%. For the same molecule, the “Percent Growth” value (MCF7; Log10 Concentration −8.0) was 87%, the GI50 (OVCAR-3) was 2.42 µM and the TGI (OVCAR-3) was 8.46 µM. For the same molecule, the “Percent Growth” value (OVCAR-3; Log10 Concentration −4.0) was −97%, the “Percent Growth” value (OVCAR-3; Log10 Concentration −5.0) was −7% and the “Percent Growth” value (OVCAR-3; Log10 Concentration −6.0) was 85%. The “Percent Growth” value (OVCAR-3; Log10 Concentration −7.0) was 105%, the “Percent Growth” value (OVCAR-3; Log10 Concentration −8.0) was 108% and the CC50 (OVCAR-3; read-out: LC50) was 30.4 µM. The TGI (BT-549) was 18.3 µM, the “Percent Growth” value (BT-549; 81-549, Log10 Concentration −4.0) was −96% and the “Percent Growth” value (BT-549; 81-549, Log10 Concentration −5.0) was 34%. The “Percent Growth” value (BT-549; 81-549, Log10 Concentration −6.0) was 89%, the “Percent Growth” value (BT-549; 81-549, Log10 Concentration −7.0) was 88% and the “Percent Growth” value (BT-549; 81-549, Log10 Concentration −8.0) was 83%. The CC50 (NCI/ADR-RES) was > 100 µM, the CC50 (UO-31 [1]) was 49.5 µM and the GI50 (RXF 393) was 2.11 µM. The TGI (RXF 393) was 8.93 µM, the “Percent Growth” value (RXF 393; Log10 Concentration −4.0) was −84% and the “Percent Growth” value (RXF 393; Log10 Concentration −5.0) was −4%. The “Percent Growth” value (RXF 393; Log10 Concentration −6.0) was 76%, the “Percent Growth” value (RXF 393; Log10 Concentration −7.0) was 86% and the “Percent Growth” value (RXF 393; Log10 Concentration −8.0) was 98%. The GI50 (HCT-116) was 2.72 µM, the TGI (HCT-116) was 11.4 µM and the “Percent Growth” value (HCT-116; Log10 Concentration −4.0) was −92%. The “Percent Growth” value (HCT-116; Log10 Concentration −5.0) was 5%, the “Percent Growth” value (HCT-116; Log10 Concentration −6.0) was 84% and the “Percent Growth” value (HCT-116; Log10 Concentration −7.0) was 96%. For the same molecule, the “Percent Growth” value (HCT-116; Log10 Concentration −8.0) was 95%, the CC50 (HCT-116; read-out: LC50) was 37 µM and the GI50 (UO-31 [2]) was 3.34 µM. For the same molecule, the TGI (UO-31 [2]) was 16.1 µM, the “Percent Growth” value (UO-31 [2]; Log10 Concentration −4.0) was −81% and the “Percent Growth” value (UO-31 [2]; Log10 Concentration −5.0) was 21%. For the same molecule, the “Percent Growth” value (UO-31 [2]; Log10 Concentration −6.0) was 82%, the “Percent Growth” value (UO-31 [2]; Log10 Concentration −7.0) was 91% and the “Percent Growth” value (UO-31 [2]; Log10 Concentration −8.0) was 91%. The GI50 (DU-145) was 4.89 µM, the TGI (DU-145) was 16.6 µM and the “Percent Growth” value (DU-145; Log10 Concentration −4.0) was −97%. The “Percent Growth” value (DU-145; Log10 Concentration −5.0) was 27%, the “Percent Growth” value (DU-145; Log10 Concentration −6.0) was 101% and the “Percent Growth” value (DU-145; Log10 Concentration −7.0) was 108%. The “Percent Growth” value (DU-145; Log10 Concentration −8.0) was 110%, the GI50 (UACC-62) was 4.86 µM and the TGI (UACC-62) was 18.9 µM. The “Percent Growth” value (UACC-62; Log10 Concentration −4.0) was −85%, the “Percent Growth” value (UACC-62; Log10 Concentration −5.0) was 33% and the “Percent Growth” value (UACC-62; Log10 Concentration −6.0) was 88%. For the same molecule, the “Percent Growth” value (UACC-62; Log10 Concentration −7.0) was 95% and the “Percent Growth” value (UACC-62; Log10 Concentration −8.0) was 95%.
